This is an account of results in patent US20220008445A1, “METHODS, COMPOSITIONS, AND KITS FOR TREATING OCULAR DISEASES” (ELOXX PHARMACEUTICALS, priority 2018, published 2022).

One series has as its system retinal cultures. Description: Cytotoxicity in retinal cultures (staining profile). It counts as cell-based. As for the experimental part:
The cytotoxicity of NB30, NB54, NB84, NB122, NB124, and NB127 was evaluated in retinal cultures.

Series [1] deals with USH1F PCDH15 mutation R3X. Description: Plasmid-based dual-luciferase read-through assay in HeLa cells, USH1F. Conditions: for read-through of the USH1F mutation (in words): FIG. 8, FIG. 9; for dose-dependence of read-through induction, USH1F: FIG. 11. In kind it is cell-based. As for the experimental part:
(§1) An in vitro assay was then performed to determine if the same dose-dependent suppression could be achieved using other aminoglycosides. This in vitro assay utilized a plasmid-based, dual-luciferase approach. Short sequences that include Usher syndrome nonsense mutations were cloned into the linker region between Renilla and Firefly luciferase reporters, and plasmids were transiently transfected into HeLa cells to evaluate compound read-through. This model permits an early assessment of read-through potential against disease-specific mutations. Read-through activity was evaluated using USH2A and USH1F mutations.
(§2) NB122, NB124, NB84, NB127, NB118, NB128, NB124-MeS, and NB157 were evaluated for their ability to induce read-through on the USH2A mutation R626X and the USH1F PCDH15 mutation R3X.

A further series relates to USH2A mutation R626X. Nature of the series: Plasmid-based dual-luciferase read-through assay in HeLa cells, USH2A. In kind it is cell-based. The following applies: for read-through of the USH2A mutation (in words): FIG. 7, FIG. 9; for dose-dependence of read-through induction, USH2A: FIG. 10. How it is done: as §1, §2
Series [2] deals with retina. Conditions: for tolerability in gross ophthalmological examination and ERG compared to gentamicin: in vivo. As for the experimental part: Biocompatibility and pharmacokinetic/pharmacodynamic profiles were evaluated for the aminoglycosides NB30, NB54/Compound 37, NB84/ELX-03, NB122/ELX-01, NB124/ELX-02, NB127/ELX-04, NB118/ELX-05, and NB128/ELX-06 in patient-derived cell lines and rodent animal models.
NB122 was well-tolerated compared to gentamicin in gross ophthalmological examination and ERG when administered by intravitreal injection.

In series [3] the test system is nonsense mutation R262X in the Oca2 gene. Nature of the series: Read-through after intravitreal injection in albino mice (melanin production). In kind it is in vivo, SJL/J mice. Conditions: for in vivo read-through as compared to gentamicin: injection to the posterior segment (back of eye); for melanin production in the eye: intravitreal injection, FIGS. 20-21. How it is done: Read-through activity following intravitreal injection of aminoglycosides was evaluated in animal models.
Albino mice (SJL/J mice) harbor the nonsense mutation R262X in the Oca2 gene resulting in an absence of melanin production in melanocytes. This model provides an initial evaluation of compound availability to the back of the eye when administered by intravitreal injection—higher concentrations of melanin correspond to greater read-through activity.
NB122, NB124, NB124-MeS, NB84, NB118, NB127, NB128, and NB157 were evaluated for read-through activity following intravitreal injection into SJL/J mice. FIGS. 20-21 show intravitreal read-through for each compound relative to gentamicin.

Series [4] relates to USH1F nonsense mutations R3X and R245X. Description: Cell-Free Read-through Assay. It counts as biochemical. The following applies: FIG. 5A-B. As for the experimental part:
Cell-Free Read-through Assay. NB84 and NB127 were evaluated for their ability to induce read-through of the USH1F nonsense mutations R3X and R245X in a cell-free assay.

Series [5] deals with USH1C nonsense mutation R155X. Description: Usher protein expression, USH1C nonsense mutation. It counts as cell-based. The following applies: FIG. 17. As for the experimental part:
The ability of these compounds to induce protein expression of nonsense mutations associated with Usher syndrome was evaluated using USH1C nonsense mutations.

The next series has as its system USH1 nonsense mutations. Description: In vitro cell-based read-through assay in HEK293 cells. Conditions: greater at higher concentrations, FIG. 6A-B. The text has this: In Vitro Cell-Based Assay. NB84 and NB127 were next tested in an in vitro assay using HEK293 cells to determine if similar read-through activity could be achieved in a cellular environment.
The subject of series [6] is R213X nonsense mutation in human TP53. Nature of the series: Protein Based Read-through Assay in DMS114 cells. In kind it is cell-based. Conditions: Western blot and immunofluorescence. As for the experimental part:
Protein Based Read-through Assay. NB122, NB124, NB84, NB118, and NB128 were evaluated for their protein-based read-through potential in DMS114 cells, which harbor a native R213X nonsense mutation in human TP53 as depicted in the scheme shown in FIG. 12. […] A high-throughput immunofluorescence assay measuring p53 localized at the nucleus is shown in FIG. 15 with dose-dependence studies for NB84. Lastly, FIG. 16 provides full dose response curves for NB122, NB124, NB84, NB118, and NB128 with the error bars representing a standard deviation (SD).
(In western blotting, separated proteins are transferred to a membrane and probed.)

Series [7] can be described thus: Intravitreal pharmacokinetic profile, retina exposure. Conditions: 100 μg intravitreal. It counts as in vivo, Dutch-Belted rabbits. As for the experimental part:
Pharmacokinetic profiles of NB124 were evaluated using healthy Dutch-Belted rabbits. Rabbits were injected with 100 μg of NB124 and followed for 192 hours. […] Overall, the results support a favorable therapeutic index for intravitreal administration of any of NB124.

Series [8] relates to healthy New Zealand white rabbits. Nature of the series: Single-dose intravitreal tolerability, ERG and histology. In kind it is in vivo. Conditions: nine days after single 300 μg or 600 μg intravitreal injection. How it is done:
Biocompatibility and pharmacokinetic/pharmacodynamic profiles were then evaluated for intravitreal injection of NB118 versus gentamicin. Single-dose tolerability was screened in healthy New Zealand white rabbits and evaluated based on ERG and histology. Dark-adapted oscillatory potential and photopic b-wave amplitudes were measured pre- and nine-days post a single 300 μg or 600 μg injection of aminoglycoside as shown in FIG. 2.
Results were confirmed by a veterinary pathologist.

The conditions of series [9]: intravitreal, human; cited from earlier work.
The test system of series [10] is retina. The following applies: have been reported; cited from earlier work.

For the molecule `NCC[C@H](O)C(=O)N[C@@H]1CC(N)[C@@H](O[C@H]2OC(CO)[C@@H](O)[C@H](O)C2N)[C@H](O[C@@H]2O[C@H](CN)[C@H](O)C2O)C1O` (stereo partly drawn) [NB54], the “staining profile versus untreated retinal cultures” value in the series on retinal cultures is reported as “did not significantly differ”.
With `CC(N)C1OC(OC2C(O)C(NC(=O)C(O)CCN)CC(N)C2OC2OC(C(C)O)C(O)C(O)C2N)C(O)C1O` (stereo not drawn) [NB127], the “read-through of the USH1F mutation (in words)” value in [1] was “significant read-through”. Also, in the series on USH2A mutation R626X, the “read-through of the USH2A mutation (in words)” value is recorded as “significant read-through”. Moreover, the “tolerability in gross ophthalmological examination and ERG compared to gentamicin” value in the series with retina [2] is recorded as “well-tolerated”. Also, in [3], the “in vivo read-through as compared to gentamicin” value is given as “significant read-through” and the “melanin production in the eye” value is listed as “dose-dependent increase”. For the same molecule, the “read-through as compared to G418 and gentamicin” value in series [4] is on record as “significant read-through”. Also, in [5], the “protein expression versus gentamicin and vehicle control” value was “increased protein expression”. Also, the read-through in cells result in the series on USH1 nonsense mutations was “significant read-through”.
As to `C[C@H](N)[C@H]1O[C@@H](O[C@@H]2[C@@H](O)[C@H](N)C[C@H](N)[C@H]2O[C@H]2O[C@H]([C@@H](C)O)[C@@H](O)[C@H](O)[C@H]2N)[C@H](O)[C@@H]1O` [NB124], the “dose-dependence of read-through induction, USH1F” value in series [1] is “dose-dependence”. For the same molecule, the “dose-dependence of read-through induction, USH2A” value in the series with USH2A mutation R626X is given as “dose-dependence”. For the same molecule, the “nonsense mutation read-through as measured by protein expression (full length p53)” value in [6] is recorded as “dose-dependent”. Besides, the “tolerability in gross ophthalmological examination and ERG compared to gentamicin” value with retina [2] is on record as “well-tolerated”. The “time for which retina exposure covers the compound's IC50” value in series [7] was “over 48 hours”. Besides, the “time of peak retina exposure” value in series [7] (followed for 192 hours) was found to be 3 h. Also, in [3], the “in vivo read-through as compared to gentamicin” value was “significant read-through” and the “melanin production in the eye” value is on record as “dose-dependent increase”. Also, the “protein expression versus gentamicin and vehicle control” value in series [5] is “increased protein expression”.
Turning to gentamicin [reference compound], in [8], the “dark-adapted oscillatory potential peaks (ERG)” value is given as “ablation” and the “photopic b-wave potentials (ERG)” value is on record as “moderate reduction”. Further, in series [3] (0.2 μg intravitreal, t-test vs. vehicle control), the melanin entry is “increases melanin”. Besides, the “dose at which toxicity observed” value in series [3] (intravitreal, pilot study FIG. 19) was 0.5 µg. The half-life in series [9] was 40 to 60 h. Also, the reported retinal toxicities entry in the series on retina [10] is recorded as “dose-limiting retinal toxicities”.
As for `C[C@@H](O)C1O[C@H](O[C@@H]2C(N)C[C@@H](NC(=O)[C@@H](O)CCN)[C@@H](O)C2O[C@@H]2O[C@H](CN)[C@H](O)C2O)[C@@H](N)C(O)[C@@H]1O` (stereo partly drawn) [NB84], in series [1], the “read-through of the USH1F mutation (in words)” value is on record as “significant read-through” and the “dose-dependence of read-through induction, USH1F” value is on record as “dose-dependence”. In the series with USH2A mutation R626X, the “read-through of the USH2A mutation (in words)” value was “significant read-through” and the “dose-dependence of read-through induction, USH2A” value is on record as “dose-dependence”. Also, the “nonsense mutation read-through as measured by protein expression (full length p53)” value in [6] is “dose-dependent”. In the series on retina [2], the “in vivo ocular tolerance, intravitreal doses” value is “up to 600 μg/mL”; the “tolerability in gross ophthalmological examination and ERG compared to gentamicin” value is given as “well-tolerated”. In series [3], the “in vivo read-through as compared to gentamicin” value is on record as “significant read-through” and the “melanin production in the eye” value is on record as “dose-dependent increase”. Moreover, the “read-through as compared to G418 and gentamicin” value in series [4] is listed as “significant read-through”. Also, in series [5], the “protein expression versus gentamicin and vehicle control” value is listed as “increased protein expression”. The read-through in cells result with USH1 nonsense mutations is “significant read-through”.

What is called half-life is the time needed for the level to fall by half in the phase considered.
